US7968752B2, “Hydrolytically-resistant boron-containing therapeutics and methods of use” (Anacor Pharmaceuticals, Inc., priority 2003, dated 2011)
In brackets after ≈: the same amount, converted by molar mass.

Tests used:
S. aureus ATCC 29213 = test: MIC determination (NCCLS broth microdilution); format: cell-based; settings: 24 hours at 34° C., lowest concentration with >=80% inhibition; for MIC: Staphylococcus aureus, ATCC29213
S. pneumoniae ATCC 6301 = test: MIC determination (NCCLS broth microdilution); format: cell-based; settings: 24 hours at 34° C., lowest concentration with >=80% inhibition; for MIC: Streptococcus pneumoniae, ATCC6301
[1] = Cell viability (CellTiter 96) in HepG2 2.15 assay; format: cell-based; settings: human, HepG2 2.2.15 cells (produce HBV ayw1 strain); read-out: Anti-Hepatitis B Activity TC50
Method: (§1) HepG2 2.15 Antiviral Evaluation Assay—HepG2 2.2.15 cells, which produce HBV ayw1 strain, were plated in 96-well collagencoated microtiter plates at a density of 2.5×10^4/well with DMEM medium supplemented with 2% fetal bovine serum. One day following plating of cells, the wells were washed and the medium was replaced with complete medium containing the test compound diluted in the medium in a half-log series.
(§2) The medium was replaced once with the fresh medium containing the freshly diluted compound three days post the initial addition of the lamivudine, a positive control compound. Cell viability was determined using CellTiter 96® Reagent (Promega, Madison, Wis.) according to the manufacturer's protocol, using a Vmax plate reader (Molecular Devices, Sunnyvale, Calif.). The mixture is metabolized by the mitochondrial enzymes of metabolically active cells to a soluble formazan product, allowing the rapid quantitative analysis of cell numbers. The media was removed and replaced with 100 μl of fresh media and 10 μl of Cell Titer 96. […] Percent cell viability of compound treated wells compared to no compound controls was calculated using an in-house computer program which graphs the percent reduction in viral cytopathic effects and the cell numbers at each drug concentration relative to control values.

S. faecalis ATCC 29212 = test: MIC determination (NCCLS broth microdilution); format: cell-based; settings: 24 hours at 34° C., lowest concentration with >=80% inhibition; for MIC: Enterococcus faecalis, ATCC29212
[2] = Cytotoxicity in HCV RNA replicon assay; settings: human, ET cell line (luc-ubi-neo/ET)
in vitro = settings: human
[3] = test system: S. epidermidis ATCC 12228; test: MIC determination (NCCLS broth microdilution); format: cell-based; settings: 24 hours at 34° C., lowest concentration with >=80% inhibition; for MIC: Staphylococcus epidermidis, ATCC12228
17D strain YFV virus = test: microbe, parasite or virus in culture; format: cell-based, Yellow Fever (YFV); settings: Yellow fever virus, HeLa, 168 h, read-out: Anti-Yellow Fever Activity IC50
S. faecium CT-26 = test: MIC determination (NCCLS broth microdilution); format: cell-based; settings: 24 hours at 34° C., lowest concentration with >=80% inhibition; for MIC: Enterococcus faecium, CT26
HBV ayw1 strain = test: HepG2 2.15 Antiviral Evaluation Assay; format: cell-based; settings: Hepatitis B virus; HepG2 2.2.15 cells; read-out: Anti-Hepatitis B Activity IC50
Method: as §1, §2

| SMILES | MIC (S. aureus ATCC 29213) [µg/mL] | MIC (S. pneumoniae ATCC 6301) [µg/mL] | CC50 [1] [nM] | MIC (S. faecalis ATCC 29212) [µg/mL] | CC50 at 72 hr [2] [nM] | CC50 at 7 day (in vitro) [nM] | MIC [3] [µg/mL] | IC50 (17D strain YFV virus) [nM] | MIC (S. faecium CT-26) [µg/mL] | IC50 (HBV ayw1 strain) [nM] | MIC S. aureus ATCC 29213 (S. aureus ATCC 29213) [micrograms per ml] | MIC S. pneumoniae ATCC 6301 (S. pneumoniae ATCC 6301) [micrograms per ml] | MIC S. faecalis ATCC 29212 (S. faecalis ATCC 29212) [micrograms per ml] | MIC S. epidermidis ATCC 12228 [3] [micrograms per ml] | MIC S. faecium CT-26 (S. faecium CT-26) [micrograms per ml] |
| --- | --- | --- | --- | --- | --- | --- | --- | --- | --- | --- | --- | --- | --- | --- | --- |
| Fc1ccc2c(c1)COB2c1cccc(Cl)c1 [Compound 11, 1-(3-Chlorophenyl)-5-fluoro-1,3-dihydrobenzo[c][1,2]oxaborole] | < 0.125 | 8 (≈ 32.5 µM) | 3200 | 32 (≈ 130 µM) | 1290 | 4140 | 1 (≈ 4.06 µM) | 650 | 32 (≈ 130 µM) | 2470 | – | – | – | – | – |
| NCc1cccc(B2OCc3cc(F)ccc32)c1 [Compound 24] | 4 (≈ 16.6 µM) | 16 (≈ 66.4 µM) | – | 32 (≈ 133 µM) | – | – | 8 (≈ 33.2 µM) | – | 32 (≈ 133 µM) | – | – | – | – | – | – |
| N#Cc1ccc(B2OCc3ccccc32)cc1 [Compound 18, 4-(Benzo[c][1,2]oxaborol-1(3H)-yl)benzonitrile] | 2 (≈ 9.13 µM) | 4 (≈ 18.3 µM) | – | 32 (≈ 146 µM) | – | 6600 | 2 (≈ 9.13 µM) | 740 | 32 (≈ 146 µM) | – | – | – | – | – | – |
| CC[C@H]1OC(=O)[C@H](C)[C@@H](O[C@H]2C[C@@](C)(OC)[C@@H](O)[C@H](C)O2)[C@H](C)[C@@H](O[C@@H]2O[C@H](C)C[C@H](N(C)C)[C@H]2O)[C@](C)(O)C[C@@H](C)C(=O)[C@H](C)[C@@H](O)[C@]1(C)O [Erythromycin, reference compound] | 0.5 (≈ 0.681 µM) | – | – | 2 (≈ 2.73 µM) | – | – | 0.5 (≈ 0.681 µM) | – | – | – | – | – | – | – | – |
| Fc1cccc(B2OCc3cc(Cl)ccc32)c1 [Compound 13, 5-Chloro-1-(3-Fluorophenyl)-1,3-dihydrobenzo[c][1,2]oxaborole] | < 0.125 | 4 (≈ 16.2 µM) | – | 16 (≈ 64.9 µM) | 370 | 6220 | 0.25 (≈ 1.01 µM) | 1390 | 8 (≈ 32.5 µM) | – | – | – | – | – | – |
| NCc1ccc(B2OCc3cc(F)ccc32)cc1 [Compound 23] | 2 (≈ 8.3 µM) | 8 (≈ 33.2 µM) | – | 16 (≈ 66.4 µM) | – | – | 8 (≈ 33.2 µM) | – | 16 (≈ 66.4 µM) | – | – | – | – | – | – |
| N#Cc1cccc(B2OCc3ccccc32)c1 [Compound 14, 3-(Benzo[c][1,2]oxaborol-1(3H)-yl)benzonitrile] | 0.25 (≈ 1.14 µM) | 2 (≈ 9.13 µM) | – | 32 (≈ 146 µM) | 1140 | 6530 | 2 (≈ 9.13 µM) | 440 | 16 (≈ 73 µM) | – | – | – | – | – | – |
| CO/N=C(\C(=O)N[C@@H]1C(=O)N2C(C(=O)O)=C(CSc3nc(=O)c(=O)[nH]n3C)CS[C@H]12)c1csc(N)n1 [Ceftriaxone, reference compound] | 2 (≈ 3.61 µM) | 0.125 (≈ 0.225 µM) | – | 64 (≈ 115 µM) | – | – | 1 (≈ 1.8 µM) | – | 64 (≈ 115 µM) | – | – | – | – | – | – |
| N#Cc1ccc(B2OCc3cc(F)ccc32)cc1 [Compound 19, 4(5-Fluorobenzo[c][1,2]oxaborol-1(3H)-yl)benzonitrile] | 8 (≈ 33.7 µM) | 16 (≈ 67.5 µM) | – | > 64 | 270 | 17100 | 16 (≈ 67.5 µM) | – | > 64 | – | – | – | – | – | – |
| CC1(C)S[C@@H]2[C@H](NC(=O)Cc3ccccc3)C(=O)N2[C@H]1C(=O)O [Pen G, reference compound] | – | – | – | – | – | – | – | – | – | – | 0.5 | 0.125 | 1 | 16 | 32 |
| C[C@@H](O)[C@H]1C(=O)N2C(C(=O)O)=C(SCCN=CN)C[C@H]12 [Imipenem, reference compound] | 0.125 (≈ 0.418 µM) | 0.125 (≈ 0.418 µM) | – | 1 (≈ 3.34 µM) | – | – | 0.125 (≈ 0.418 µM) | – | 64 (≈ 214 µM) | – | – | – | – | – | – |
| Cc1onc(-c2ccccc2Cl)c1C(=O)N[C@@H]1C(=O)N2[C@@H]1SC(C)(C)[C@@H]2C(=O)O [Cloxacillin, reference compound] | 0.125 (≈ 0.287 µM) | 0.125 (≈ 0.287 µM) | – | 16 (≈ 36.7 µM) | – | – | 0.25 (≈ 0.574 µM) | – | 64 (≈ 147 µM) | – | – | – | – | – | – |
| N#Cc1cccc(B2OCc3cc(F)ccc32)c1 [Compound 20, 3-(5-Fluorobenzo[c][1,2]oxaborol-1(3H)-yl)benzonitrile] | 1 (≈ 4.22 µM) | 8 (≈ 33.7 µM) | – | 64 (≈ 270 µM) | 5990 | 21000 | 16 (≈ 67.5 µM) | 1620 | 64 (≈ 270 µM) | – | – | – | – | – | – |
| Fc1ccc2c(c1)B(c1cccc(Cl)c1)OC2 [Compound 15, 1-(3-Chlorophenyl)-6-fluoro-1,3-dihydrobenzo[c][1,2]oxaborole] | 0.5 (≈ 2.03 µM) | 4 (≈ 16.2 µM) | – | 16 (≈ 64.9 µM) | 540 | 6600 | 2 (≈ 8.11 µM) | 1190 | 8 (≈ 32.5 µM) | – | – | – | – | – | – |
| Nc1ccn([C@@H]2CS[C@H](CO)O2)c(=O)n1 [lamivudine, reference compound] | – | – | > 1000 | – | – | – | – | – | – | 9.3 | – | – | – | – | – |
| Clc1ccc(B2OCc3ccccc32)cc1 [Compound 17, 1-(4-Chlorophenyl)-1,3-dihydrobenzo[c][1,2]oxaborole] | 2 (≈ 8.75 µM) | 4 (≈ 17.5 µM) | – | 16 (≈ 70 µM) | 260 | 6420 | 2 (≈ 8.75 µM) | 1560 | 16 (≈ 70 µM) | – | – | – | – | – | – |
| N#Cc1cccc(B2OCc3ccc(F)cc32)c1 [Compound 21, 3-(6-Fluorobenzo[c][1,2]oxaborol-1(3H)-yl)benzonitrile] | 8 (≈ 33.7 µM) | 8 (≈ 33.7 µM) | – | 64 (≈ 270 µM) | 690 | 15800 | 16 (≈ 67.5 µM) | 2360 | 64 (≈ 270 µM) | – | – | – | – | – | – |
| Clc1cccc(B2OCc3ccccc32)c1 [Compound 12, 1-(3-Chlorophenyl)-1,3-dihydrobenzo[c][1,2]oxaborole] | 0.5 (≈ 2.19 µM) | 8 (≈ 35 µM) | – | 16 (≈ 70 µM) | 12700 | – | 2 (≈ 8.75 µM) | – | 16 (≈ 70 µM) | – | – | – | – | – | – |
| CC1(C)OB(c2cccc(Cl)c2)c2ccccc21 [Compound 16, 1-(3-Chlorophenyl)-1,3-dihydro-3,3-dimethylbenzo[c][1,2]oxaborole] | 0.5 (≈ 1.95 µM) | 8 (≈ 31.2 µM) | – | 16 (≈ 62.4 µM) | – | – | 2 (≈ 7.8 µM) | – | 16 (≈ 62.4 µM) | – | – | – | – | – | – |
